Patent US8951963B2, “Active cores of peptide triazole HIV-1 entry inhibitors” (priority 2009, dated 2015)
*1 amine or outer side, *2 acyl side, *3 side chain or, on linkers, in order; H or OH if unused. Where a SMILES comes first, the peptide text is derived from it. [ ]: non-standard residue; d: D form. X1 = O=C([C@@H]1C[C@H](n2cc([C]34[CH]5[CH]6[CH]7[CH]3[Fe]6754389%10[CH]4[CH]3[CH]8[CH]9[CH]4%10)nn2)CN1[*:1])[*:2]; Cit = NC(=O)NCCC[C@H](N)C(=O)O

How the values were obtained:
[1] = test system: HIV-1 strain BaL; details: P4-CCR5 cells; Gopi et al., 2008; read-out: IC50, inhibition of infection by HIV-1 BaL; cited from earlier work
[2] = target: T1, HIV-1 YU2 gp120 (Human immunodeficiency virus type 1 group M subtype B, UniProt P35961); format: binding; details: for dissociation rate constant (koff): Table 11, dissociation rate; for Ka: Table 11, association rate
T1 construct: made in house; host or cells: Drosophila S2 cells
Description: Surface plasmon resonance (SPR) interaction analyses were performed on a Biacore® 3000 optical biosensor (GE). All experiments were carried out at 25° C. using standard PBS, pH 7.4, with 0.005% Surfactant P20.
Regeneration of the surface was achieved by a one 5-second pulse of 10 mM glycine, pH 1.5.
SPR data analyses were performed using BIAEvaluation 4.0 software (GE). […] Experimental data were fitted to a simple 1:1 binding model with a parameter included for mass transport. […] The inhibition curve was converted into a calibration curve by the use of a fitting function. The fitting was done using the 4-parameter equation in BIAevaluation software: […]

[3] = target: T2, gp120 (Human immunodeficiency virus type 1 group M subtype B, UniProt P35961); format: binding, HIV-1; details: ITC, 25° C., PBS pH 7.4
T2 construct: made in house; host or cells: Drosophila S2 cells
Description: FIGS. 14A-14D are a series of graphs of calorimetric titration data of gp120 with various peptides. […] Data was obtained as 25° C. in PBS, pH 7.4. Experiments in FIGS. 14A and 14B were carried out using a VP-ITC, where 2 μM gp120 in the calorimetric cell (˜1.4 mL) was titrated with 10 μL aliquots of peptide at concentration of 30 μM.
Isothermal titration calorimetric experiments were performed using high-precision calorimetric systems of model VP-ITC or ITC20 from MicroCal Inc. The titrations were performed by stepwise addition of peptide to gp120 contained in the calorimetric cell at a constant temperature of 25° C. […] For the experiments carried out in the VP-ITC the concentration of gp120 was about 2 μM and the syringe contained the peptide at a concentration about 30 μM. For the experiment carried out using ITC20 gp120 was prepared at about 4 μM and the peptide at 50-100 μM. The solutions contained within the calorimetric cells and injector syringes were prepared in PBS, pH 7.4 and thoroughly degassed to avoid bubble formation in the calorimetric cell. The heat evolved upon each injection of the peptide solution was obtained from the integral of the calorimetric signal. The heat associated with binding of a ligand to the protein in the cell was obtained by subtracting the heat of dilution from the heat of reaction.

[4] = test system: HIV-1 strain BaL; assay: Combination of HNG-156 and cyanovirin-N, HIV-1 BaL infection of P4-CCR5 cells; format: cell-based; details: agent alone

Molecule	dissociation rate constant (koff) [2]	further results
12-mer peptide RINNIPWSEAMM (SEQ ID NO. 16) from phage-display library [Conjugate 12p1, reference compound]		IC50 [1]: 48 µM
CC[C@H](C)[C@H](NC(=O)[C@@H](N)CCCNC(=N)N)C(=O)N[C@@H](CC(N)=O)C(=O)N[C@@H](CC(N)=O)C(=O)N[C@H](C(=O)N1C[C@@H](n2cc([C]34[CH]5[CH]6[CH]7[CH]3[Fe]6754389%10[CH]4[CH]3[CH]8[CH]9[CH]4%10)nn2)C[C@H]1C(=O)N[C@@H](Cc1c[nH]c2ccccc12)C(=O)N[C@@H](CO)C(N)=O)[C@@H](C)CC (some centres unmarked) [UM11] (H-RINNI[X1]WS-NH2; N-terminus and C-terminus assumed)	2.1E−02 ± 0.6 1/S	
CC[C@H](C)[C@H](N)C(=O)N[C@@H](CC(N)=O)C(=O)N[C@@H](CC(N)=O)C(=O)N[C@H](C(=O)N1C[C@@H](n2cc([C]34[CH]5[CH]6[CH]7[CH]3[Fe]6754389%10[CH]4[CH]3[CH]8[CH]9[CH]4%10)nn2)C[C@H]1C(=O)N[C@@H](Cc1c[nH]c2ccccc12)C(N)=O)[C@@H](C)CC (some centres unmarked) [UM15] (H-INNI[X1]W-NH2)	3.3E−03 ± 0.3 1/S	ΔH [3]: -16.6 kcal/mol; −TΔS [3]: +6.6 kcal/mol
CC[C@H](C)[C@H](NC(=O)[C@@H](N)CCCNC(=N)N)C(=O)N[C@@H](CC(N)=O)C(=O)N[C@@H](CC(N)=O)C(=O)N[C@H](C(=O)N1C[C@@H](n2cc([C]34[CH]5[CH]6[CH]7[CH]3[Fe]6754389%10[CH]4[CH]3[CH]8[CH]9[CH]4%10)nn2)C[C@H]1C(N)=O)[C@@H](C)CC (some centres unmarked) [UM16] (H-RINNI[X1]-NH2; N-terminus assumed)	Not detectable	Ka [2]: Not detectable
CC[C@H](C)[C@H](N)C(=O)N[C@@H](CC(N)=O)C(=O)N[C@@H](CC(N)=O)C(=O)N[C@H](C(=O)N1C[C@@H](n2cc([C]34[CH]5[CH]6[CH]7[CH]3[Fe]6754389%10[CH]4[CH]3[CH]8[CH]9[CH]4%10)nn2)C[C@H]1C(=O)N[C@@H](Cc1c[nH]c2ccccc12)C(=O)N[C@@H](CO)C(N)=O)[C@@H](C)CC (some centres unmarked) [UM21] (H-INNI[X1]WS-NH2; N-terminus and C-terminus assumed)	1.4E−03 ± 0.5 1/S	
CC[C@H](C)[C@H](NC(=O)[C@H](CC(N)=O)NC(=O)[C@H](CC(N)=O)NC(=O)[C@@H](N)CCCNC(=N)N)C(=O)N1C[C@@H](n2cc([C]34[CH]5[CH]6[CH]7[CH]3[Fe]6754389%10[CH]4[CH]3[CH]8[CH]9[CH]4%10)nn2)C[C@H]1C(=O)N[C@@H](Cc1c[nH]c2ccccc12)C(=O)N[C@@H](CO)C(N)=O (some centres unmarked) [UM22] (H-RNNI[X1]WS-NH2; N-terminus and C-terminus assumed)	6.8E−03 ± 0.4 1/S	
CC[C@H](C)[C@H](NC(=O)[C@H](CC(N)=O)NC(=O)[C@H](CC(N)=O)NC(=O)[C@@H](N)CCC(=O)O)C(=O)N1C[C@@H](n2cc([C]34[CH]5[CH]6[CH]7[CH]3[Fe]6754389%10[CH]4[CH]3[CH]8[CH]9[CH]4%10)nn2)C[C@H]1C(=O)N[C@@H](Cc1c[nH]c2ccccc12)C(=O)N[C@@H](CO)C(N)=O (some centres unmarked) [UM23] (H-ENNI[X1]WS-NH2; N-terminus and C-terminus assumed)	3.4E−03 ± 0.2 1/S	
CC[C@H](C)[C@H](NC(=O)[C@H](CC(N)=O)NC(=O)[C@H](CC(N)=O)NC(=O)[C@@H](N)CCCNC(N)=O)C(=O)N1C[C@@H](n2cc([C]34[CH]5[CH]6[CH]7[CH]3[Fe]6754389%10[CH]4[CH]3[CH]8[CH]9[CH]4%10)nn2)C[C@H]1C(=O)N[C@H](Cc1c[nH]c2ccccc12)C(=O)N[C@@H](CO)C(N)=O (some centres unmarked) [UM24-DW] (H-[Cit]NNI[X1][dW]S-NH2; N-terminus assumed)	Not detectable	Ka [2]: Not detectable
CC[C@H](C)[C@H](NC(=O)[C@H](CC(N)=O)NC(=O)[C@H](CC(N)=O)NC(=O)[C@@H](N)CCCCN)C(=O)N1C[C@@H](n2cc([C]34[CH]5[CH]6[CH]7[CH]3[Fe]6754389%10[CH]4[CH]3[CH]8[CH]9[CH]4%10)nn2)C[C@H]1C(=O)N[C@@H](Cc1c[nH]c2ccccc12)C(=O)N[C@@H](CO)C(N)=O (some centres unmarked) [UM27] (H-KNNI[X1]WS-NH2)	8.8E−03 ± 2.1 1/S	
CC[C@H](C)[C@H](NC(=O)[C@H](CC(N)=O)NC(=O)[C@H](CC(N)=O)NC(=O)[C@@H](N)Cc1ccccc1)C(=O)N1C[C@@H](n2cc([C]34[CH]5[CH]6[CH]7[CH]3[Fe]6754389%10[CH]4[CH]3[CH]8[CH]9[CH]4%10)nn2)C[C@H]1C(=O)N[C@@H](Cc1c[nH]c2ccccc12)C(=O)N[C@@H](CO)C(N)=O (some centres unmarked) [UM28] (H-FNNI[X1]WS-NH2)	4.3E−03 ± 0.8 1/S	
CC[C@H](C)[C@H](NC(=O)[C@H](CC(N)=O)NC(=O)[C@@H](N)CC(N)=O)C(=O)N1C[C@@H](n2cc([C]34[CH]5[CH]6[CH]7[CH]3[Fe]6754389%10[CH]4[CH]3[CH]8[CH]9[CH]4%10)nn2)C[C@H]1C(=O)N[C@@H](Cc1c[nH]c2ccccc12)C(=O)N[C@@H](CO)C(N)=O (some centres unmarked) [UM31] (H-NNI[X1]WS-NH2)	7.8E−03 ± 1.1 1/S	ΔH [3]: -13.8 kcal/mol; −TΔS [3]: +4.1 kcal/mol
CC[C@H](C)[C@H](NC(=O)[C@H](CC(N)=O)NC(=O)[C@@H](N)CCCNC(=N)N)C(=O)N1C[C@@H](n2cc([C]34[CH]5[CH]6[CH]7[CH]3[Fe]6754389%10[CH]4[CH]3[CH]8[CH]9[CH]4%10)nn2)C[C@H]1C(=O)N[C@@H](Cc1c[nH]c2ccccc12)C(=O)N[C@@H](CO)C(N)=O (some centres unmarked) [UM32] (H-RNI[X1]WS-NH2)	3.1E−03 ± 1.5 1/S	
CC[C@H](C)[C@H](NC(=O)[C@H](CC(N)=O)NC(=O)[C@@H](N)CCC(=O)O)C(=O)N1C[C@@H](n2cc([C]34[CH]5[CH]6[CH]7[CH]3[Fe]6754389%10[CH]4[CH]3[CH]8[CH]9[CH]4%10)nn2)C[C@H]1C(=O)N[C@@H](Cc1c[nH]c2ccccc12)C(=O)N[C@@H](CO)C(N)=O (some centres unmarked) [UM33] (H-ENI[X1]WS-NH2)	1.8E−03 ± 0.8 1/S	
CC[C@H](C)[C@H](NC(=O)[C@H](CC(N)=O)NC(=O)[C@@H](N)CCCNC(N)=O)C(=O)N1C[C@@H](n2cc([C]34[CH]5[CH]6[CH]7[CH]3[Fe]6754389%10[CH]4[CH]3[CH]8[CH]9[CH]4%10)nn2)C[C@H]1C(=O)N[C@@H](Cc1c[nH]c2ccccc12)C(=O)N[C@@H](CO)C(N)=O (some centres unmarked) [UM34] (H-[Cit]NI[X1]WS-NH2; N-terminus assumed)	Not detectable	Ka [2]: Not detectable
CC[C@H](C)[C@H](N)C(=O)N[C@@H](CC(N)=O)C(=O)N[C@H](C(=O)N1C[C@@H](n2cc([C]34[CH]5[CH]6[CH]7[CH]3[Fe]6754389%10[CH]4[CH]3[CH]8[CH]9[CH]4%10)nn2)C[C@H]1C(=O)N[C@@H](Cc1c[nH]c2ccccc12)C(=O)N[C@@H](CO)C(N)=O)[C@@H](C)CC (some centres unmarked) [UM35] (H-INI[X1]WS-NH2; N-terminus assumed)	Not detectable	Ka [2]: Not detectable
CC[C@H](C)[C@H](NC(=O)[C@@H](N)CC(N)=O)C(=O)N1C[C@@H](n2cc([C]34[CH]5[CH]6[CH]7[CH]3[Fe]6754389%10[CH]4[CH]3[CH]8[CH]9[CH]4%10)nn2)C[C@H]1C(=O)N[C@@H](Cc1c[nH]c2ccccc12)C(=O)N[C@@H](CO)C(N)=O (some centres unmarked) [UM41] (H-NI[X1]WS-NH2)	Not detectable	Ka [2]: Not detectable; ΔH [3]: -6.1 kcal/mol; −TΔS [3]: -1.6 kcal/mol
Cyanovirin-N: 11 kD protein originally isolated from the cyanobacteria Nostoc ellipsosporum; binds gp120 (protein, listed as Nostoc ellipsosporum, DISULFID (8)..(22); DISULFID (58)..(73)) LGKFSQTCYNSAIQGSVLTSTCERTNGGYNTSSIDLNSVIENVDGSLKWQPSNFIETCRNTQLAGSSELAAECKTRAQQFVSTKINLDDHIANIDGTLKYE		Viral infectivity inhibition IC50 [4]: 0.026 microgram/milliliter; EC50 Dm ([4]; dose at which 50% neutralization occurs): 0.045 µg/mL
